Measurements: US20260109712A1, “RIFAMYCINS FOR NONTUBERCULOUS MYCOBACTERIA” (priority 2022, published 2026)
Converted amounts (≈) assume the structure as drawn. Read-outs that look alike come from different tables or passages of the source.

Columns and labels:
M. abscessus Bamboo [1] = test: Caseum surrogate MBC90 (cMBC90) kill assay; assay type: cell-based, Mycobacterium abscessus
From the text: (§1) The surrogate matrix was generated as described previously from cultured THP-1 cells (ATCC TIB-202) (mBio, 2023, 14, e0059823). M. abscessus exponential cultures grown in Middlebrook 7H9 broth (Sigma Aldrich) (OD600 0.6-0.9) were spun down and resuspended in water to an OD600 of 7, 0.7, and 0.07. As described for the M. tuberculosis caseum surrogate assay (mnBio, 2023, 14, e0059823), the bacterial suspensions (at three different dilutions resulting in ˜10^9, 10^8, and 10^7 starting CFU/mL, represented by circle, square, and triangle indicators respectively) were added to the caseum surrogate in the ratio 2:1 (vol/wt), briefly homogenized with 1.4-mm zirconia beads, divided evenly into nine 1.5-mL microcentrifuge tubes, and incubated as standing cultures at 37° C. At the indicated time points, tubes were removed and used for CFU enumeration by plating on Middlebrook 7H11 agar (Sigma Aldrich). Separate tubes were used at each time point. To determine the kill curves, cultures with a starting CFU/mL of 10^8 were used (resulting in the middle curve with square indicators). Arrows indicate the time points when drugs were added and the end of the treatment. The experiment was repeated three times independently, yielding similar results. A representative example is shown. Dots and error bars represent means and standard deviations of three technical replicates, respectively.
FIGS. 29A-29M show the Dose-response kill curves against M. abscessus Bamboo in caseum surrogate. M. abscessus cultures were set up as described in the legend of FIG. 28. Bacterial cell suspensions were added to yield a starting CFU of 10^8/mL (FIG. 28, middle growth curve with square indicators). […] The shaded areas indicate drug concentration windows achieved in caseum in vivo. (Antimicrob. Agents Chemother., 2021, 65, e0050621; Antimicrob. Agents Chemother., 2022, 66, e0221221; PLoS Med., 2019, 16, e1002773; ACS Infect. Dis., 2016, 2, 251-267). The experiment was repeated twice independently, yielding similar results. A representative example is shown. Dots and error bars represent means and standard deviations of three technical replicates, respectively. Horizontal dotted lines indicate the cutoff for 1 log reduction in CFU compared to 10-day drug-free control culture. The cMBC90 values shown in Table 16 are the drug concentrations that reduce CFU by 90% relative to the CFU of drug-free controls at day 10. Since the cultures were in the stationary phase on day 5 when drug treatment started, the CFUs of the drug-free cultures at day 10 were similar to the CFUs of the drug-free cultures at day 5 (FIG. 28).
as §1, with “(doi: 10.1128/mbio.00598-23).” for “(mBio, 2023, 14, e0059823).”, “(doi: 10.1128/mbio.00598-23),” for “(mnBio, 2023, 14, e0059823),”, “CFU/mL)” for “CFU/mL, represented by circle, square, and triangle indicators respectively)”, “curves for the drugs,” for “curves,”, “used.” for “used (resulting in the middle curve with square indicators). Arrows indicate the time points when drugs were added and the end of the treatment.”, “results.” for “results. A representative example is shown. Dots and error bars represent means and standard deviations of three technical replicates, respectively.”
The experiment was repeated twice independently, yielding similar results. A representative example is shown. The cMBC90 values shown in Table 16 are the drug concentrations that reduce CFU by 90% relative to the CFU of drug-free controls at day 10. […]

M. abscessus Bamboo [2] = test: MIC assay, clinical isolate Bamboo; assay type: cell-based, Mycobacterium abscessus; conditions: Mycobacteroides abscessus
M. abscessus Bamboo [3] = test: Broth MBC90 (bMBC90); assay type: cell-based, Mycobacterium abscessus; conditions: Mycobacteroides abscessus, 120 h; broth, 5 days
From the text: Broth MIC, broth MBC90 (bMBC90), and caseum surrogate MBC90 ([…]) of clinically used antibiotics and of novel ADP-ribosylation-resistant rifabutin analogs against M. abscessus Bamboo have been evaluated.

Δarr M. abscessus = test: MIC assay, isogenic arr-deleted strain; assay type: cell-based, Mycobacterium abscessus; conditions: Table 10
In short: (§2)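 Two-fold, ten-point dilutions in 7H9 with 2% DMSO; mid-log culture diluted to OD600=0.1 (1×10^7 CFU/mL). Incubated 3 days at 37 °C, shaking 110 RPM; growth = Day 3 minus Day 0 OD600, expressed as percentage of drug-free growth and plotted against concentration. Two biological replicates.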

[4] = Plasma protein binding assay (rapid equilibrium dialysis); assay type: in vitro ADME
In short: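 Plasma was spiked to 10,000 ng/mL compound and dialysed against PBS by rapid equilibrium dialysis for 4 h at 37° C with shaking at 300 RPM. Plasma and buffer aliquots were matrix-matched 1:1 […] and quantified by LC-MS/MS.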

M. abscessus ATCC 19977 = test: MIC assay in 96-well plate format, wild-type strain; assay type: cell-based, Mycobacterium abscessus; conditions: for MICWT: Table 10; for MIC: read-out: WT Mab MIC
In short: as §2

Mycobacterium abscessus = test: MIC against Mycobacterium abscessus (strain not given); assay type: cell-based
[5] = Mouse pharmacokinetics studies; assay type: in vivo, CD-1 mice; conditions: for AUCp.o.: po
Experimental: Blood was captured in CB300 blood collection tubes containing K2EDTA and stored on ice. Plasma was recovered after centrifugation and stored at −80° C. until analyzed by high pressure liquid chromatography coupled to tandem mass spectrometry (LC-MS/MS). Pharmacokinetic parameters were calculated using non-compartmental pharmacokinetic analysis. […] Extracts were vortexed for 5 minutes and centrifuged at 4000 RPM for 5 minutes. 75 μL of supernatant was transferred for LC-MS/MS analysis and diluted with 75 μL of Milli-Q deionized water. Rifabutin was purchased from Carbosynth. C25-desacetyl rifabutin and rifabutin-d7 were purchased from Toronto Research Chemical. Verapamil was purchased from Sigma-Aldrich. […] Multiple-reaction monitoring of parent/daughter transitions in electrospray positive-ionization mode was used to quantify all analytes. […] Data processing was performed using Analyst software (version 1.6.2; Applied Biosystems Sciex).

[6] = Mycobacteroides abscessus, 72 h, Table 22, read-out: MICMab
[7] = Mycobacteroides abscessus, ATCC19977, Table 15, heterocyclic aromatic carbamates

Experimental for CYP3A4: The threshold cycle (CT) was measured for each isoform cDNA by real time qRT-PCR. The mRNA level of each isoform was assessed by the relative quantifiation with reference gene (GAPDH) as the normalizer method. The normalized fold induction was calculated by 2^−ΔΔCT method, in which 0.1% DMSO was used as the reference (vehicle control). The induction potential of each test compound was analyzed by comparing its fold induction to a pre-determined cutoff value for each lot of hepatocytes. The hepatocytes lots used in this study were validated using 10 known inducers and 5 known non-inducers for each isozyme. A cutoff value is determined based on the validation study for each hepatocytes lot.

Which cMBC90/bMBC90 (M. abscessus Bamboo [1]; 5-day assays) does the source give for `CN(C)c1cc(NC(=O)CNC(C)(C)C)c(O)c2c1C[C@H]1C[C@H]3[C@H](N(C)C)C(O)=C(C(N)=O)C(=O)[C@@]3(O)C(O)=C1C2=O` [Tigecycline, tigecycline] here?
Its cMBC90/bMBC90 is 1.

What about the MBC (M. abscessus Bamboo [1]; Mycobacteroides abscessus, 120 h, read-out: cMBC90) of the same molecule?
Its MBC is 8 µM (≈ 4.69 µg/mL).

What about the MIC (M. abscessus Bamboo [2]) of the same molecule?
The MIC was 12.5 µM (≈ 7.32 µg/mL).

And the MBC (M. abscessus Bamboo [3])?
The MBC was 8 µM (≈ 4.69 µg/mL).

Which MICΔorr (Δarr M. abscessus) does the source give for `CO[C@H]1/C=C/O[C@@]2(C)Oc3c(C)c(O)c4c(c3C2=O)C2=NC3(CCN(CC(C)C)CC3)NC2=C(NC(=O)/C(C)=C/C=C/[C@H](C)[C@H](O)[C@@H](C)[C@@H](O)[C@@H](C)[C@H](OC(=O)c2ccccc2)[C@@H]1C)C4=O` [UMN7] here?
The MICΔorr was 0.059 µM.

What about the fraction unbound at 4 h, 10000 ng/mL ([4]; plasma) of the same molecule?
The fraction unbound at 4 h, 10000 ng/mL was 0.0003.

And the “CYP3A4 gene fold-induction at 10 μM” value (CYP3A4; human, 10 μM)?
The value was 8.6.

What about the MICWT (M. abscessus ATCC 19977) of the same molecule?
Its MICWT is 0.053 µM.

And the MIC (Mycobacterium abscessus; [6])?
The MIC was 0.053 µM (≈ 0.0482 µg/mL).

For `CO[C@H]1/C=C/O[C@@]2(C)Oc3c(C)c(O)c4c(c3C2=O)C2=NC3(CCN(CC(C)C)CC3)NC2=C(NC(=O)/C(C)=C/C=C/[C@H](C)[C@H](O)[C@@H](C)[C@@H](O)[C@@H](C)[C@H](OC(=O)NC2CCN(Cc3ccccc3)CC2)[C@@H]1C)C4=O` [UMN15], which MICΔorr (Δarr M. abscessus) is on record?
Its MICΔorr is 0.028 µM.

What about the ƒu [4] of the same molecule?
Its ƒu is 0.2%.

What about the plasma unbound fraction ([4]; plasma) of the same molecule?
The plasma unbound fraction was 0.19%.

And the ƒAUC/MIC ([5]; Table 18)?
Its ƒAUC/MIC is 0.8.

And the CL ([5]; mouse, in vivo)?
The CL was 6.40 mL/min/kg.

What about the F ([5]; mouse, in vivo) of the same molecule?
The F was 35%.

What about the Vd ([5]; mouse, in vivo) of the same molecule?
The Vd was 5.92 L/kg.

What about the AUCp.o. ([5]; mouse, in vivo) of the same molecule?
Its AUCp.o. is 5658 ng·h/mL.

And the “CYP3A4 gene fold-induction at 10 μM” value (CYP3A4)?
Its value is 1.2.

What about the MICWT (M. abscessus ATCC 19977) of the same molecule?
The MICWT was 0.013 µM.

And the MIC (M. abscessus ATCC 19977; Table 14, carbamate analogs)?
The MIC was 0.013 µM (≈ 0.0133 µg/mL).

And the MIC (Mycobacterium abscessus; Table 22, read-out: MICMab)?
The MIC was 0.013 µM (≈ 0.0133 µg/mL).

With `CO[C@H]1/C=C/O[C@@]2(C)Oc3c(C)c(O)c4c(c3C2=O)C2=NC3(CCN(CC(C)C)CC3)NC2=C(NC(=O)/C(C)=C/C=C/[C@H](C)[C@H](O)[C@@H](C)[C@@H](O)[C@@H](C)[C@H](OC(=O)NC2CC(C)(C)NC(C)(C)C2)[C@@H]1C)C4=O` [UMN32] as the molecule, how does the MICΔorr (Δarr M. abscessus) read?
The MICΔorr was 0.09 µM.

And the ƒu ([4]; 4 h, 10000 ng/mL)?
The ƒu was 6.7%.

And the fraction unbound at 4 h, 10000 ng/mL ([4]; plasma)?
Its fraction unbound at 4 h, 10000 ng/mL is 0.067.

And the “CYP3A4 gene fold-induction at 10 μM” value (CYP3A4; human, 10 μM)?
Its value is 0.6.

And the MIC (M. abscessus ATCC 19977; Mycobacteroides abscessus, ATCC19977, Table 14, carbamate analogs)?
The MIC was 0.04 µM (≈ 0.0395 µg/mL).

What about the MICWT (M. abscessus ATCC 19977) of the same molecule?
The MICWT was 0.04 µM.

And the MIC (Mycobacterium abscessus; [6])?
The MIC was 0.04 µM (≈ 0.0395 µg/mL).

Which results are given for `CO[C@H]1/C=C/O[C@@]2(C)Oc3c(C)c(O)c4c(c3C2=O)C2=NC3(CCN(CC(C)C)CC3)NC2=C(NC(=O)/C(C)=C/C=C/[C@H](C)[C@H](O)[C@@H](C)[C@@H](O)[C@@H](C)[C@H](OC(=O)Nc2cnccn2)[C@@H]1C)C4=O` [UMN120]?
ƒu [4]: 4.2%; plasma unbound (ƒu, %) ([4]; plasma): 4.2%; F ([5]; mouse, in vivo): 73%; ƒAUC/MIC ([5]; mouse, in vivo): 88.8; AUCp.o. ([5]; mouse, in vivo): 55072 ng·h/mL; CYP3A4 gene fold-induction at 10 μM (CYP3A4): 0.7; MIC (M. abscessus ATCC 19977; Table 15, heterocyclic aromatic carbamates): 0.028 µM (≈ 0.0259 µg/mL); MIC (Mycobacterium abscessus; Table 22, read-out: MICMab): 0.028 µM (≈ 0.0259 µg/mL); MIC (Mycobacterium abscessus; against Mycobacterium abscessus, Table 19, read-out: MIC): 0.028 µM (≈ 0.0259 µg/mL)

With `CO[C@H]1/C=C/O[C@@]2(C)Oc3c(C)c(O)c4c(c3C2=O)C2=NC3(CCN(CC(C)C)CC3)NC2=C(NC(=O)/C(C)=C/C=C/[C@H](C)[C@H](O)[C@@H](C)[C@@H](O)[C@@H](C)[C@H](OC(=O)Nc2cscn2)[C@@H]1C)C4=O` [UMN132] as the molecule, how does the ƒu ([4]; 4 h, 10000 ng/mL) read?
The ƒu was 1.7%.

And the “CYP3A4 gene fold-induction at 10 μM” value (CYP3A4; human, 10 μM)?
The value was 1.4.

And the MIC (M. abscessus ATCC 19977; [7])?
The MIC was 0.026 µM (≈ 0.0242 µg/mL).

What about the MIC (Mycobacterium abscessus; [6]) of the same molecule?
The MIC was 0.026 µM (≈ 0.0242 µg/mL).

Which ƒu ([4]; 4 h, 10000 ng/mL) does the source give for `CO[C@H]1/C=C/O[C@@]2(C)Oc3c(C)c(O)c4c(c3C2=O)C2=NC3(CCN(CC(C)C)CC3)NC2=C(NC(=O)/C(C)=C/C=C/[C@H](C)[C@H](O)[C@@H](C)[C@@H](O)[C@@H](C)[C@H](OC(=O)Nc2cncs2)[C@@H]1C)C4=O` [UMN133] here?
Its ƒu is 3.0%.

And the “CYP3A4 gene fold-induction at 10 μM” value (CYP3A4; human, 10 μM)?
Its value is 1.7.

What about the MIC (M. abscessus ATCC 19977; [7]) of the same molecule?
The MIC was 0.046 µM (≈ 0.0428 µg/mL).

What about the MIC (Mycobacterium abscessus; [6]) of the same molecule?
The MIC was 0.046 µM (≈ 0.0428 µg/mL).
